These results are taken from US6321750A, “Condom lubricants with zinc salts as anti-viral additives” (priority 1999, dated 2001).

Data set [1] deals with forearm. The data set can be described thus: Irritation test on forearm / skin. The format is in vivo, human. As for the experimental part: Zinc acetate was purchased from Pfaltz and Bauer (Waterbury, Connecticut). About 0.5 grams were mixed with several drops of distilled water at room temperature. […] The aqueous mixture was rubbed into an area about 3 cm in diameter on the forearm of […] and caused no irritation. Subsequently, about 0.5 grams of the salt were dissolved in a few drops of distilled water, then 10 ml K-Y Lubricating Jelly (sold by Johnson and Johnson, New Brunswick, N.J.) was added to form a gel mixture containing about 5% zinc acetate (w/v). This commercially available mixture contains purified water, hydroxyethyl-cellulose as a thickening agent, glycerin as a lubricant, glucono-delta-lactate to prevent crystallization, chlorhexidine gluconate as a preservative, and sodium hydroxide to reduce the acidity.

The test system of data set [2] is male genitals. Briefly: Irritation test on male genitals / urethra. The following applies: gel in K-Y Lubricating Jelly, about 5% w/v; passive and active rubbing. The procedure: In all examples, the test subjects were a monogamous married couple, free of genital herpes and all other known sexually transmitted viruses.
The mixture of zinc acetate in K-Y Lubricating Jelly was tested on the male genitals, passively at first and then with active rubbing.
About 0.5 grams were dissolved in several drops of distilled water and tested on the forearm and genitals.

Data set [3] relates to genitals (both persons, during intercourse). The data set can be described thus: Irritation test of lubricant during intercourse / human volunteers. The format is in vivo. The text has this:
Subsequently, the gel formulation was applied topically and used as a sexual lubricant during intercourse. Both people wiped off the excess with a tissue after intercourse, but neither person showered or washed off the lubricant until the following day. It caused no irritation to either person.

Data set [4] concerns HIV. Briefly: HIV infectivity tests with zinc acetate 1.5% (diluted and undiluted viral stocks, p24 ELISA). The format is cell-based, HIV-1. The text has this:
The tests described above, in Example 8, used an undiluted high-titer viral stock, which contained at least ten million infectious viral particles per ml. That concentration can be achieved in a laboratory only by special culturing, purification, and concentration techniques, and it is vastly higher than would actually occur in the ejaculate of an HIV-infected person (especially someone who is not in the end stages of the disease, and who might pose a significant risk of transmitting the virus to an unknowing sexual partner).
These tests used serial dilutions of the viral stocks, at ranges from 1:10 to 1:10,000. To create the 1:10 dilution, 500 μl of viral stock was mixed with 4.5 ml of RPMI medium. Subsequent dilutions added 9 ml of RPMI medium to 1 ml from the preceding dilution.
(§1) A 2 ml aliquot from each dilution was mixed with an equal volume of 3% ZnAc dissolved in sterile distilled water; after mixing, the zinc concentration was 5.3 mg/ml Zn. These mixtures were incubated for 2 hours, then diluted with culture medium at 1:30, 1:100, and 1:1000 to reduce the toxicity of the zinc to lymphocytes. Four ml of lymphocytes were mixed with 4 ml of each zinc/virus mixture. The zinc/virus/cell mixtures were incubated at 37° C. for 3 hours; zinc concentrations were 88, 27, and 2.7 μg/ml in the 30, 100, and 1000 dilutions.
Following the 3 hour incubation, the cells were washed twice in RPMI medium and resuspended in fresh medium containing 10% FCS. Each solution was inoculated (2 ml; estimated minimum 2×10^5 cells per well) into each of three wells in a 12-well plate and cultured for 27 days, with periodic sampling and measuring of p24 antigens.
Positive controls used 1:1000 dilutions of viral stock mixed with zinc-free RPMI. These controls were consistently highly infectious, even though their concentrations were 100× lower than the 1:10 mixtures in which infectivity was eliminated by zinc treatment. Other positive controls were tested at up to 100,000× dilutions; these were highly infective in two out of the three plates tested.
While carrying out the viral dilution tests, tests were also performed using 2 ml of 3% ZnAc solution in distilled water mixed with 2 ml aliquots of undiluted viral stock. The zinc/virus mixtures were incubated for 2 hours, diluted with RPMI at 1:100 and 1:1000 ratios, and mixed with lymphocytes for three hours; zinc concentrations were 27 and 2.7 μg/ml. The cells were washed twice, inoculated into 12 well plates as described above, and cultured for 27 days.
On the technique in general: In an ELISA, binding on a coated surface is turned into a signal by an enzyme label.

Data set [5] deals with HIV. Briefly: HIV precipitation test. Conditions: 2% ZnAc with equal volume of undiluted viral stock. As for the experimental part:
Precipitation tests using HIV were also carried out Biotech Research Laboratories, using 2% ZnAc which was mixed with an equal volume of undiluted viral stock, incubated for 24 hours, and centrifuged at 1500 rpm in a tabletop centrifuge for 5 minutes. The supernatant was sampled ([…]) and serially diluted by medium, at 1:10 followed by 2× dilutions (1:20, 1:40, 1:80, etc) to a maximum dilution of 1:10240. Each dilution was analyzed spectrophotometrically to determine the concentration of viruses suspended in solution. After sampling, each tube was hand-mixed and incubated for 24 hours. The solution near the top of the tube was sampled again, serially diluted, and tested using the ELISA assay. The tube was hand-mixed again, incubated for three more days, and sampled again to obtain Day 5 values.

Data set [6] has as its system H-9 lymphocytes. The data set can be described thus: Toxicity to lymphocytes. The format is cell-based. The procedure: In a first set of tests, 20 mg of zinc acetate powder (ZnAc, MW 183.4) was mixed in 1 ml RPMI cell culture medium (Whittaker Corp.). This 2% (w/v) salt mixture contained 7 mg/ml elemental Zn. […] Therefore, a small quantity of HCl was added until the mixture became clear; the pH was about 5.5. The Zn concentration was reduced by half (and the pH was raised somewhat) when an equal volume (1 ml) of cell-free high-titer HIV-1 viral stock was added. The zinc/virus mixture was stirred and incubated for 2 hours at 37° C. (i.e., normal body temperature).
Following this first incubation step, the zinc/virus mixtures were diluted at 1:10, 1:30, and 1:100 ratios using culture medium, and aliquots were added to equal volumes of culture media containing H-9 lymphocytes that had been pretreated overnight with 2 μg/ml Polybreen. The lymphocyte mixtures were incubated for three hours at 37° C.; zinc concentrations during this step were 180, 60, and 18 μg/ml for the 1:10, 1:30, and 1:100 dilutions.
as §1

The conditions of data set [7]: cited from earlier work.
Data set [8] relates to several cell lines. The data set can be described thus: Zinc toxicity in several cell lines. The following applies: read-out: concentration at which toxicity began to appear in mild form, all comparable.

“Also recorded” adds a separate entry of the source. Like-named read-outs stand apart in the source and are kept apart here.

As for Zinc acetate, in data set [1] (about 0.5 g in several drops of distilled water), the “irritation, forearm” value is listed as “no irritation”. Also, the “burning and irritation to the skin” value in [1] (dissolved in water alone) was “substantial amount of burning and irritation to the skin”. In addition, the “irritation, male genitals” value in data set [2] is on record as “no irritation”. Besides, the irritation during intercourse entry in data set [3] (gel in K-Y Lubricating Jelly, about 5% w/v) is “no irritation; also recorded: Neither of these salts caused any irritation”. Besides, the “irritation of gel / genital lubricant formulations” value in [3] (in gel or genital lubricant, human volunteers) was “did not cause any irritation”. The HIV infectivity result in [4] (10×, 100×, 1000× diluted stocks, zinc/virus diluted 1:1000 (2.7 μg/ml Zn)) is “completely blocked infectivity”; in data set [4] (diluted stocks, zinc/virus diluted 1:100 (27 μg/ml Zn)), “viral infectivity was completely blocked”; in [4] (diluted viral stocks, 1.5% zinc acetate 2 h) it was “completely eliminated”; in [4] (diluted viral stocks, 1.5% zinc acetate 2 h, listed as ZnAc), “completely eliminated the infectivity”; in data set [4] (undiluted stock, zinc/virus diluted 1:100 (27 μg/ml Zn), 27 days) it was “completely prevented infectivity”; in [4] (undiluted stock, zinc/virus diluted 1:1000 (2.7 μg/ml Zn), 27 days), “delayed the onset of infection”. Besides, in [4] (high-titer stocks, various concentrations of zinc acetate), the “HIV infectivity (FIG. 4)” value is listed as “either eliminated or suppressed”. Further, in data set [5], the “virus precipitation” value is “substantial precipitation of the virus”. Also, the cell mortality entry in data set [6] (88 μg/ml Zn, 3 h) is reported as “significant cell mortality”; in data set [6] (lower levels (27 and 2.7 μg/ml Zn), 3 h) it was “no cell mortality”. Besides, in [6] (1:10 dilution, 180 μg/ml Zn, 3 h), the lymphocyte mortality entry is given as “substantial mortality to the lymphocytes”. For the same substance, the lymphocyte growth entry in data set [6] (1:30 dilution, 60 μg/ml Zn, visual observation) is “retarded cell growth during the first few days”. The “solubility in cell culture medium / water” value (20 mg in 1 ml RPMI culture medium containing protein) is listed as “generated a precipitate in the culture medium”. The “solubility in water” value is “highly soluble in water” (general statement) and “dissolved completely” (salt in a few drops of distilled water, room temperature). In addition, the ionization rate in data set [7] (in aqueous solution) is given as not above 30%. Besides, the “Reported pK values” in data set [7] (in water, values below 2 refer to release of a single carboxy anion) was 1.03. In addition, the MCC in data set [8] was approximately 100 mM.
